Results from patent US20030171377A1, “Antidiabetic agents” (priority 2001, published 2003).
Values belong to the compound of their own block, whether it stands above or below them.

Columns and labels:
[1] = test system: 3T3-L1 preadipocytes; experiment: 3T3-L1 Adipocyte Differentiation Assay (ADPDIFF), Test A; format: cell-based; details: BODIPY lipid fluorescence, reported as % of BRL 49653 at 5 μM
Method: Cells are replenished with FBS containing media on day 5 of post-drug treatment and incubated for additional 4-6 days. Cells are stained with BODIPY a fluorescent lipophilic stain to quantitate the lipid content of the cells. The assay is optimized for a 96-well plate format. Approximately after 10 days of post-drug treatment, cells are fixed in 3% formalin solution for 15 min followed by staining with BODIPY (80 μg/ml) for 20 min at room temperature. The plate is then put through the CYTOFLUOR instrument to measure the fluorescence of BODIPY (excitation=485/20; emission=530/25).

[2] = test system: CV-1 cells (FATP promoter luciferase reporter, 300 nM BRL); experiment: ANTCV1 Antagonist Transcription Assay, Test B; format: cell-based, African green monkey; details: Chlorocebus sabaeus, 25 μM test compound with 300 nM BRL, 48 hrs, % BRL inhibition, read-out: ANTCV1 INHIB @ 25 μM
[3] = test system: endogenous nuclear receptors in CV-1 cells; experiment: CV-1 Native Receptors Transcription Assay (MKNRCV1), Test C; format: cell-based, African green monkey; details: for EC50: Chlorocebus sabaeus, CV-1 cells, 48 hours, unit inferred

EC50 [3]: 0.9 µM
SMILES: Cc1oc(-c2ccccc2)nc1CCOc1ccc(CC(C(=O)O)n2ccc(-c3ccccc3)c2)cc1 (centres unmarked)
ADPDIFF % BRL @ 5 μM [1]: 125 % BRL
inhibition at 25 µM [2]: 29%
MKNRCV1 % BRL @ 25 μM ([3]; percent activity of BRL 49653): 54 % BRL

EC50 [3]: 1.4 µM
SMILES: O=C(O)[C@H](Cc1ccc(OCc2ccccc2F)cc1)n1cccc1
ADPDIFF % BRL @ 5 μM [1]: 21 % BRL
inhibition at 25 µM [2]: -46%
MKNRCV1 % BRL @ 25 μM ([3]; percent activity of BRL 49653): 92 % BRL

EC50 [3]: 3.3 µM
SMILES: Cc1oc(-c2ccccc2)nc1CCOc1ccc(C[C@@H](C(=O)NS(=O)(=O)c2ccccc2)n2cccc2)cc1
ADPDIFF % BRL @ 5 μM [1]: 90 % BRL
inhibition at 25 µM [2]: -117%
MKNRCV1 % BRL @ 25 μM ([3]; percent activity of BRL 49653): 101 % BRL

EC50 [3]: 11.1 µM
SMILES: CN(CCOc1ccc(CC(C(=O)O)n2ccc(C(=O)C3CCCCC3)c2)cc1)c1nc2ccccc2o1 (centres unmarked)
ADPDIFF % BRL @ 5 μM [1]: 112 % BRL
inhibition at 25 µM [2]: 4%
MKNRCV1 % BRL @ 25 μM ([3]; percent activity of BRL 49653): 65 % BRL

EC50 [3]: 2 µM
SMILES: Cc1oc(-c2ccccc2)nc1CCOc1ccc(CC(C)(C(=O)O)n2cccc2)cc1 (centres unmarked)
ADPDIFF % BRL @ 5 μM [1]: 117 % BRL
inhibition at 25 µM [2]: -80.3%
MKNRCV1 % BRL @ 25 μM ([3]; percent activity of BRL 49653): 87 % BRL

EC50 [3]: 9.2 µM
SMILES: Cc1sc(-c2ccccc2)nc1CCOc1ccc(C[C@@H](C(=O)O)n2cccc2)cc1 [drawing 269]
ADPDIFF % BRL @ 5 μM [1]: 92 % BRL
inhibition at 25 µM [2]: -20%
MKNRCV1 % BRL @ 25 μM ([3]; percent activity of BRL 49653): 76 % BRL

EC50 [3]: 9.5 µM
SMILES: Cc1oc(-c2ccccc2)nc1CCOc1ccc(CC(F)(C(=O)O)c2ccccc2)cc1 (centres unmarked) [drawing 216]
ADPDIFF % BRL @ 5 μM [1]: 122 % BRL
inhibition at 25 µM [2]: 37%
MKNRCV1 % BRL @ 25 μM ([3]; percent activity of BRL 49653): 63 % BRL

The next lines start with the compound.

SMILES: Cc1oc(-c2ccccc2)nc1CCOc1ccc(C[C@H](C(=O)O)c2ccccc2)cc1
ADPDIFF % BRL @ 5 μM [1]: 31 % BRL
inhibition at 25 µM [2]: -44%
MKNRCV1 % BRL @ 25 μM ([3]; percent activity of BRL 49653): 50 % BRL

SMILES: COC(=O)[C@H](Cc1ccc(CCCN(C)c2ccccc2)cc1)n1cccc1
ADPDIFF % BRL @ 5 μM [1]: 73 % BRL
inhibition at 25 µM [2]: -2%
MKNRCV1 % BRL @ 25 μM ([3]; percent activity of BRL 49653): 71 % BRL

SMILES: COC(=O)[C@H](Cc1ccc(C#CCN(C)c2ccccn2)cc1)n1cccc1
ADPDIFF % BRL @ 5 μM [1]: 29 % BRL
inhibition at 25 µM [2]: 71%
MKNRCV1 % BRL @ 25 μM ([3]; percent activity of BRL 49653): 38 % BRL
EC50 [3]: 5.6 µM

SMILES: Cc1oc(-c2ccccc2)nc1CCOc1ccc(CC(C)(C)C(=O)O)cc1 [drawing 217]
ADPDIFF % BRL @ 5 μM [1]: 131 % BRL
inhibition at 25 µM [2]: 59%
MKNRCV1 % BRL @ 25 μM ([3]; percent activity of BRL 49653): 34 % BRL

SMILES: Cc1oc(-c2ccccc2)nc1CCOc1ccc(C[C@@H](c2nnco2)n2cccc2)cc1
ADPDIFF % BRL @ 5 μM [1]: 45 % BRL
inhibition at 25 µM [2]: 49%
MKNRCV1 % BRL @ 5 μM ([3]; 5 μM (stated in the cell), percent activity of BRL 49653): 37 @ 5 μM % BRL

SMILES: Cc1oc(-c2ccccc2)nc1CCOc1ccc(C[C@@H](C(=O)O)n2c(C)ccc2C)cc1
ADPDIFF % BRL @ 5 μM [1]: 26 % BRL
inhibition at 25 µM [2]: 80%
MKNRCV1 % BRL @ 25 μM ([3]; percent activity of BRL 49653): 11 % BRL

SMILES: CN(CC#Cc1ccc(CC(C(=O)O)n2cccc2)cc1)c1ccccn1 (centres unmarked)
ADPDIFF % BRL @ 5 μM [1]: 6 % BRL
inhibition at 25 µM [2]: -32%
MKNRCV1 % BRL @ 25 μM ([3]; percent activity of BRL 49653): 71 % BRL

SMILES: CCc1nnc(C(Cc2ccc(OCCc3nc(-c4ccccc4)oc3C)cc2)c2ccccc2)o1 (centres unmarked) [drawing 225]
ADPDIFF % BRL @ 5 μM [1]: 161 % BRL
inhibition at 25 µM [2]: 47%
MKNRCV1 % BRL @ 25 μM ([3]; percent activity of BRL 49653): 61 % BRL

SMILES: Cc1oc(-c2ccccc2)nc1CCOc1ccc(CC(C(=O)O)c2cccs2)cc1 (centres unmarked)
ADPDIFF % BRL @ 5 μM [1]: 88 % BRL
inhibition at 25 µM [2]: -127%
MKNRCV1 % BRL @ 25 μM ([3]; percent activity of BRL 49653): 111 % BRL
